The text below walks through data of patent US9579406B2, “Phospholipid ether analogs as agents for detecting and locating cancer, and methods thereof” (Cellectar, Inc., priority 2004, dated 2017).

Data set [1] can be described thus: MIRDOSE radiation dose estimates for the adult female. Also noted: species or system human (from female rat biodistribution data). As to the method: Dosimetry estimation regarding I-125-NM404 for an adult female patients were calculated based on SPECT imaging data using female non-tumor bearing rats following administration of I-131-NM404. The results are listed below:
The dosimetry data were calculated from SPECT imaging in rats using I-131-NM404 and then converted to I-125-NM404. The adrenal gland seems to be the dose-limiting or critical organ for radiation exposure. In the SPECT imaging experiments the thyroids of rats were unblocked. Thus, the thyroid calculations should be evaluated with caution.

The subject of data set [2] is human RL-251 adrenal tumor xenograft. In words: Time course in human RL-251 adrenal cancer xenograft. Also noted: species or system SCID mouse. To be noted: mouse, in vivo. An excerpt:
(§1) NM404 has now been evaluated in 27 animal tumor models, including several lung, and it is clear that once the agent enters tumor cells, it reaches a metabolic dead end and becomes trapped. […] NM404 is also retained in spontaneous murine lung tumors (FIG. 13). Using ^125I-labeled NM404, the inventors have been able to image mammary and prostate tumors in mice in excess of 60 days. […] Imaging and tissue distribution studies performed in mouse models aimed at determining the uptake characteristics in a wide variety of tumor models are summarized in Table 2.
A general note: In xenograft studies the graft and the host belong to different species.

Data set [3] is classed as in vivo, human.
Data set [4] has as its system TRAMP prostate tumors. The experiment in a line: Bioscan imaging of TRAMP mice prostate tumors. Type of data set: in vivo. The note with it: 125I label 15 μCi, 1-8 days. As to the method:
Following in vivo imaging of anesthetized mice, the prostate tumors were removed immediately, and imaged ex vivo on the same scanner (equipped with high resolution 1 mm collimator and 2-D acquisition and analysis software) in order to avoid tissue attenuation associated with the low energy of iodine-125 (FIG. 21). […] In an attempt to simulate bone metastases another experiment was performed wherein human PC-3 tumor cells were implanted into the tibia of immune compromised NUDE mice (n=6) according to a recent reports. Following tumor cell inoculation, mice were scanned serially by high-resolution microCT in order to monitor bone tumor development (FIG. 22). Once bone deterioration was detected, iodine-125 labeled NM404 was administered intravenously via tail vein. Mice were scanned for radioactivity and by microCT 4 days post NM404 administration. Radioactivity scans were fused with microCT scans (FIG. 23) to corroborate NM404 radioactivity and tumor location.

The test system of data set [5] is Lung A-549 (NSCC). In words: Tumor models examined with NM404 (Table 2). The note with it: Adenocarcinoma. It is filed as in vivo, SCID Mouse.
Source text: as §1
(§2) Although tumor retention can be explained by a lack of metabolic phospholipase enzymes in the tumor cell membranes, the exact mechanism of tumor cell uptake is unknown. […] The inventors are currently evaluating the selectivity of NM404 in a unique mouse tumor model developed at Wisconsin, wherein both preneoplastic hyperplasias and malignant adenocarcinomas form spontaneously in the mammary gland. […] If this initial observation is validated, then via genomic and or proteomic analysis the inventors may be able to identify a key genetic difference between malignant tumors and their non malignant predecessor cells. This could identify a completely new molecular therapeutic target that may be universal for all types of cancer.

Data set [6] concerns Adrenal RL-251. The experiment in a line: Tumor models examined with NM404 (Table 2). It is filed as in vivo, SCID Mouse. The note with it: Adenocarcinoma.
Source text: as §1, §2

In data set [7] the test system is Prostate PC-3. In words: Tumor models examined with NM404 (Table 2). The note with it: Adenocarcinoma. It is filed as in vivo, SCID Mouse.
Source text: as §1, §2

A short description of data set [8]: Acute GLP toxicology, single iv dose, 14 days observation, rats. Type of data set: in vivo. As to the method: Drug vehicle and drug product were provided to Dr. Kostyniak by Dr. Raymond Counsell of the University of Michigan for testing as described in the appended synopses of Study 27 and Study 28. […] This toxicology study was performed under GLP conditions.
This toxicology study was performed under GLP conditions.
The control and test rats were injected intravenously in the lateral tail vein. The rats were injected with the test or control article intravenously at 2 ml/kg of body weight using a 25 gauge needle and a 1-ml syringe. The injections were given by alternating rats from the control group with rats from the test group. The injections were given cautiously over a 30 second to one minute time interval. The injection to control rat #27-01 was given at 9:03 am and last injection to test rat #27-16 was given at 11:01 am.
The rats were observed by LAF personnel for signs of acute toxicity from the time of injection until […]. The rats were weighed five (5) times a week (Monday through Friday) and their body weights, recorded in […]. On Dec. […] A heart puncture was then performed using a 20 gauge needle and a 10 ml syringe to collect the blood samples for the hematological CBC and the clinical blood chemistries. The rats were exsanguinated to cause death. The thymus, heart, lungs, spleen, kidneys, liver, brain, and testes were collected, examined grossly, weighed and sectioned for pathology. The tissue samples (except thymus) were placed in jars of “Z-fix” fixative for histology.
Sixteen (16) Sprague-Dawley rats were received from Harlan-Sprague Dawley, Indianapolis, Ind. […] They were housed at the Laboratory Animal Facility and given food and water ad lib. Each rat was given a two-part number starting with 27 (the study number) and followed by a ‘unique’ number of ‘01’ to ‘16’ (numerical). Each rat was ear punched in the right ear with the unique number of ‘01’ to ‘16’. The control rats were numbered from #27-01 to #27-08 and the test rats were numbered from #27-09 to #27-16. The unique numbers were also applied to each cage indicating which rats were housed within that cage. There were four cages of control rats and four cages of test rats. […] The two groups of eight (8) rats were established by random assignment. The rats were weighed daily until the termination of the study on Day 14.
Safety: On Day 14, the blood samples for both groups will be analyzed for hematology and clinical chemistry. Additionally, the following organs will be removed for pathology report and histology slides: brain, lung, liver, heart, kidney, spleen, and testes. A compilation chart of organ weights with organ/weight ratios for each rat may be compiled.

Data set [9] deals with LuCaP prostate. The experiment in a line: Tumor models examined with NM404 (Table 2). It is filed as in vivo, Mouse xenograft. To be noted: Adenocarcinoma.
Source text: as §1, §2

Data set [10] has as its system Melanoma B16. The experiment in a line: Tumor models examined with NM404 (Table 2). It is filed as in vivo, Mouse xenograft. The note with it: Adenocarcinoma.
Source text: as §1, §2

The test system of data set [11] is Liver CT-26. The experiment in a line: Tumor models examined with NM404 (Table 2). To be noted: Colorectal adenocarcinoma. Type of data set: in vivo, Mouse xenograft.
Source text: as §1, §2

The subject of data set [12] is non-small cell lung cancer. In words: Planar gamma-camera scintigraphy with 131I-NM-404 in NSCLC patients. To be noted: time points examined.
Description: The preparation dispensed by the Nuclear Pharmacy will be certified as sterile and pyrogen-free. The subject will be monitored for adverse reactions during and after the infusion. Vital signs will be checked immediately after the infusion, and at 60 minute intervals up to four hours post-injection. They will be observed for adverse events throughout this time. […] Vital signs will be monitored at these times. Any adverse reactions experienced by the subjects will be recorded.
Data set [13] concerns Glioma L9 and CNS-1. The experiment in a line: Tumor models examined with NM404 (Table 2). It is filed as in vivo, Rat xenograft.
Source text: as §1, §2

The mark [14] stands for this setting: male rats, 2 mg/ml at 2 ml/kg iv, 14 days.
The mark [15] stands for this setting: male rats, 2 mg/ml at 2 ml/kg iv, day 14.

As a reminder, the half-life is the time needed for the level to fall by half in the phase considered.

Entries after “also recorded” stand apart in the source; their conditions may differ.

As for `C[N+](C)(C)CCOP(=O)([O-])OCCCCCCCCCCCCCCCCCCc1ccc([125I])cc1` [Compound I-125-NM404], in [1], the “activity for 3 rads to Ovaries” value is 20 mCi, the “activity for 5 rads to Adrenals” value is recorded as 18 mCi and the “activity for 5 rads to Thyroids” value is 4.5 mCi. For the same molecule, in data set [2], the tumor retention entry is given as “retention is evident even after 20 days”.

`C[N+](C)(C)CCOP(=O)([O-])OCCCCCCCCCCCCCCCCCCc1ccc(I)cc1` [NM-404, 18-(4-iodophenyl)-octadecylphosphocholine]: in data set [3] (human, plasma, intravenous, 0.3 μg/kg, average, read-out: plasma elimination half life time (converted)), the half-life is 113 h. The agent cleared renally in data set [3] (within 4 days of iv injection) stood at 4%. In addition, in data set [4], the “uptake into prostate tumor and benign hyperplasia” value was “uptake of NM404 into prostate tumor but not benign hyperplasia; also recorded: intense uptake of radioactivity in the prostate tumor”. The “NM404 Tumor Localization” value in data set [5], in [6], in data set [7], in data set [9], in data set [10] and in data set [11] was “Yes (Localization defined as >5% injected dose per gram tumor basis based on tissue distribution data)” each time. Moreover, the “NM404 Tumor Localization” value in data set [13] is listed as “Yes (Localization defined as >5% injected dose per gram tumor basis based on tissue distribution data)”. In [8] (setting [14]), the “acute toxicologic effects (conclusion)” value is “No acute toxicologic effects attributable to the test article had been found”. In addition, the behavior entry in data set [8] (setting [14]) is reported as “No unusual behavior was noted”. Also, in data set [8] (setting [14]), the “mean body weights, test versus control group” value is recorded as “not significantly different”. Further, the “tail vein injection site reactions” value in data set [8] (setting [14]) is reported as “no adverse tissue reactions were noted”. The “clinical blood chemistries and hematology, t-test versus control” value in [8] (setting [15]) is given as “no significant differences found”. The “gross examination of tissues” value in [8] (setting [15]) was “No gross lesions were noted”. For the same molecule, the histopathology of organs result in data set [8] (setting [15]) is listed as “no changes in the histopathology of the organs examined that can be attributed to the administration of the test material”. In data set [8] (male rats, 4 mg/kg (Study 27)), the toxic effects entry is “no significant toxic effects were noted”. In addition, the acute toxicity entry in data set [8] (unlabeled, 1200 times the anticipated imaging mass dose) is “no acute toxicities were found”. Also, the urinary bladder radioactivity entry in [12] is “lack of urinary bladder radioactivity”.
